Experiments:
[1] = DRUGMATRIX: Sodium/nucleoside co-transporter radioligand binding (ligand: nitrobenzylthioinosine); format: cell membranes, Cavia porcellus, Dunkin-Hartley, Cerebral cortex, Membrane; details: Not Active = under 50% inhibition at 10 µM
[2] = DRUGMATRIX: beta-Lactamase enzyme inhibition (substrate: Nitrocefin); design: species or system Bacillus cereus; details: Not Active = under 50% inhibition at 10 µM
[3] = DRUGMATRIX: Serotonin (5-Hydroxytryptamine) 5-HT3 radioligand binding (ligand: [3H] GR-65630); format: cell membranes, Membrane; details: hek293; Not Active = under 50% inhibition at 10 µM
[4] = target: T1, Endothelin-1 receptor (Homo sapiens, UniProt P25101); format: cell membranes, CHO-K1, Membrane; details: cho-k1; note: in other assays of this panel Not Active means under 50% inhibition at 10 µM
T1 sequence (P25101 whole entry): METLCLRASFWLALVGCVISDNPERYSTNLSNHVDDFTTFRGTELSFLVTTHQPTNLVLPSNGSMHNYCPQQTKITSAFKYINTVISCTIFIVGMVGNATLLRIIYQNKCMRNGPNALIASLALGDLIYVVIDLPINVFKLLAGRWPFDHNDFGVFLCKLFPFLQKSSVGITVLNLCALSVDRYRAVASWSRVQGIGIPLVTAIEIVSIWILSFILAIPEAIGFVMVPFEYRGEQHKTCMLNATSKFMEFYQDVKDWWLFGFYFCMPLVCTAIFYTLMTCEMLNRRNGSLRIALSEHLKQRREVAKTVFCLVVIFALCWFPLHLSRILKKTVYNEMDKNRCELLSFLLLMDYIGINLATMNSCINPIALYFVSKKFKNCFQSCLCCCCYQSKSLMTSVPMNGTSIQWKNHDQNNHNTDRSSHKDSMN

[5] = target: T2, 3-hydroxy-3-methylglutaryl-coenzyme A reductase (Homo sapiens, UniProt P04035); design: species or system Escherichia coli;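 note: enzyme inhibition assay of HMG-CoA reductase using radiolabeled [14C]HMG-CoA as substrate; in other assays of this panel Not Active means under 50% inhibition at 10 µM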
T2 sequence (P04035 whole entry): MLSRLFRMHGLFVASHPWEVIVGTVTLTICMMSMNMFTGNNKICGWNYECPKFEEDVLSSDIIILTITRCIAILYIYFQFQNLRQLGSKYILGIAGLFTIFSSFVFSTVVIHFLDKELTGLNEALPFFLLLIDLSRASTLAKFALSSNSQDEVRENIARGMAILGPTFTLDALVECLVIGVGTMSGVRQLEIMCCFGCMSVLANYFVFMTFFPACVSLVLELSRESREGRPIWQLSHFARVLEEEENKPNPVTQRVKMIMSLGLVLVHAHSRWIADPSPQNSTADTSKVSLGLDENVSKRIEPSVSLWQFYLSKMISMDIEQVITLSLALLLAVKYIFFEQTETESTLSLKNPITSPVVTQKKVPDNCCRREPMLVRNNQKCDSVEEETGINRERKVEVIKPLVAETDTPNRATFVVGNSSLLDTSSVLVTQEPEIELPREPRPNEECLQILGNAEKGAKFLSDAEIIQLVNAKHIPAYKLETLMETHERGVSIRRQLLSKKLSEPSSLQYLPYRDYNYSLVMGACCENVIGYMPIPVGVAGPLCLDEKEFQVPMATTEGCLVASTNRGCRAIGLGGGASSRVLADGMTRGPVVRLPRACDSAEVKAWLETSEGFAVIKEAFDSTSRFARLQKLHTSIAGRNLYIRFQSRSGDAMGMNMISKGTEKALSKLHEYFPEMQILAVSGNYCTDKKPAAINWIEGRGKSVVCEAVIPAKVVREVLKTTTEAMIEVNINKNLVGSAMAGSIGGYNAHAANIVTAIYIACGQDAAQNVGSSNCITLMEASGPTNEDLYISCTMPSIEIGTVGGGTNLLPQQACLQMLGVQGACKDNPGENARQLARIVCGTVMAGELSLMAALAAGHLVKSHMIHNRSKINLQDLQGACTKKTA

[6] = DRUGMATRIX: Nicotinic Acetylcholine radioligand binding (ligand: [125I] Epibatidine); format: cell membranes, Membrane; details: imr-32; Not Active = under 50% inhibition at 10 µM
[7] = target: Matrix metalloproteinase-9 (Homo sapiens, UniProt P14780); test: biochemical; format: cell-based;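 note: inhibition of isolated MMP-9 enzyme activity toward a synthetic peptide substrate, from the DrugMatrix protease screening panel; in other assays of this panel Not Active means under 50% inhibition at 10 µM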
[8] = target: Adenosine receptor A2a (Homo sapiens, UniProt P29274); test: DRUGMATRIX: Adenosine A2A radioligand binding (ligand: […]); format: cell membranes, Membrane; details: hek293; Not Active = under 50% inhibition at 10 µM
Sequence of Adenosine receptor A2a (P29274 whole entry): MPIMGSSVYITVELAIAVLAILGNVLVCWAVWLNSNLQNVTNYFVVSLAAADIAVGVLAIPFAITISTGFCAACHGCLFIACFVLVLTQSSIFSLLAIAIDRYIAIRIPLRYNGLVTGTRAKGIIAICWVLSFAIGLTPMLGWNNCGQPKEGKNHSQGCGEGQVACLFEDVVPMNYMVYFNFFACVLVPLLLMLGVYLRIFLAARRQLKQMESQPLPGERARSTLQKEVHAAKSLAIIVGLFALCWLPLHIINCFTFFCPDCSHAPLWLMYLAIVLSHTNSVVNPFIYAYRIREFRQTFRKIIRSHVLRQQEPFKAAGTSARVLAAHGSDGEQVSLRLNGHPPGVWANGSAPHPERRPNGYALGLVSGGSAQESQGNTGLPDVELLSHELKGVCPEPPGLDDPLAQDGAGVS

Sequence of Matrix metalloproteinase-9 (P14780 whole entry): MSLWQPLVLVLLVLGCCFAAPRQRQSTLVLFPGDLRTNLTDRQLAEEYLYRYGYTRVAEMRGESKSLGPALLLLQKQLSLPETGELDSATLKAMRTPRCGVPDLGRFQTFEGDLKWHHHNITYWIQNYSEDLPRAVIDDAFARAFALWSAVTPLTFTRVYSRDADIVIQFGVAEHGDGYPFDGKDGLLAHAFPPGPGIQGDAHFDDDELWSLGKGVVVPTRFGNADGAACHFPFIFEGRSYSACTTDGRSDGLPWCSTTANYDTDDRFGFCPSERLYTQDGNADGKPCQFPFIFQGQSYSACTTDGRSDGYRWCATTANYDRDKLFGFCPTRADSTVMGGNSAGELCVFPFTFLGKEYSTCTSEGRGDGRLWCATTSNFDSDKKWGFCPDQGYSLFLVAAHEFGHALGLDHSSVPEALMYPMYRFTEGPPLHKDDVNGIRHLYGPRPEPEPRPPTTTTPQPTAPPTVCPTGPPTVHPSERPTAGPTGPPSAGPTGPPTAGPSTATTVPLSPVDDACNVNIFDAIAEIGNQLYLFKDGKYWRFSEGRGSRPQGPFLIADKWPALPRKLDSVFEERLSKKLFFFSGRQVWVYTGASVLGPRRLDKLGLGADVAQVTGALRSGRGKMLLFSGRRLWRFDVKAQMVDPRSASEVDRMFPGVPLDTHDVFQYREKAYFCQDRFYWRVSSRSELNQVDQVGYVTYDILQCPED

C[C@]12CCC(=O)C=C1CC[C@@H]1[C@@H]2CC[C@@]2(C)[C@H]1CC[C@]2(C)O [METHYLTESTOSTERONE]
Not Active: IC50 [1] | Ki [1] | IC50 [2] | Ki [2] | IC50 [3] | Ki [3] | IC50 [4] | IC50 [5] | IC50 [6] | Ki [6] | IC50 [7] | IC50 [8]

Nc1nc2c(ncn2COCCO)c(=O)[nH]1 [ACYCLOVIR]
Not Active: IC50 [1] | Ki [1] | IC50 [2] | Ki [2] | IC50 [3] | Ki [3] | IC50 [4] | IC50 [5] | IC50 [6] | Ki [6] | IC50 [7] | IC50 [8]

CC(C)CN(C[C@@H](O)[C@H](Cc1ccccc1)NC(=O)O[C@H]1CCOC1)S(=O)(=O)c1ccc(N)cc1
Not Active: IC50 [1] | Ki [1] | IC50 [2] | Ki [2] | IC50 [3] | Ki [3] | IC50 [4] | IC50 [5] | IC50 [6] | Ki [6] | IC50 [7] | IC50 [8]

CN(C)CCCN1c2ccccc2Sc2ccccc21 [PROMAZINE]
Not Active: IC50 [1] | Ki [1] | IC50 [2] | Ki [2] | IC50 [3] | Ki [3] | IC50 [4] | IC50 [5] | IC50 [6] | Ki [6] | IC50 [7] | IC50 [8]

Cc1c(C)c2c(c(C)c1O)CC[C@@](C)(CCC[C@H](C)CCC[C@H](C)CCCC(C)C)O2 [ALPHA-TOCOPHEROL]
Not Active: IC50 [1] | Ki [1] | IC50 [2] | Ki [2] | IC50 [3] | Ki [3] | IC50 [4] | IC50 [5] | IC50 [6] | Ki [6] | IC50 [7] | IC50 [8]

Cc1ccc(/N=C/N(C)/C=N/c2ccc(C)cc2C)c(C)c1 [AMITRAZ]
Not Active: IC50 [1] | Ki [1] | IC50 [2] | Ki [2] | IC50 [3] | Ki [3] | IC50 [4] | IC50 [5] | IC50 [6] | Ki [6] | IC50 [7] | IC50 [8]

CN(C)c1nc(N(C)C)nc(N(C)C)n1 [ALTRETAMINE]
Not Active: IC50 [1] | Ki [1] | IC50 [2] | Ki [2] | IC50 [3] | Ki [3] | IC50 [4] | IC50 [5] | IC50 [6] | Ki [6] | IC50 [7] | IC50 [8]

CNCCCN1c2ccccc2CCc2ccccc21 [DESIPRAMINE]
Not Active: IC50 [1] | Ki [1] | IC50 [2] | Ki [2] | IC50 [3] | Ki [3] | IC50 [4] | IC50 [5] | IC50 [6] | Ki [6] | IC50 [7] | IC50 [8]

CADMIUM ACETATE
Not Active: IC50 [1] | Ki [1] | IC50 [2] | Ki [2] | IC50 [3] | Ki [3] | IC50 [4] | Ki [4] | IC50 [5] | Ki [5] | IC50 [6] | Ki [6] | IC50 [7] | Ki [7] | IC50 [8] | Ki [8]

COc1cc2c3cc1Oc1cc(ccc1O)C[C@@H]1c4c(cc(OC)c(O)c4Oc4ccc(cc4)C[C@@H]3N(C)CC2)CC[N+]1(C)C.[Cl-]
Not Active: IC50 [1] | Ki [1] | IC50 [2] | Ki [2] | IC50 [3] | Ki [3] | IC50 [4] | IC50 [5] | IC50 [6] | Ki [6] | IC50 [7] | IC50 [8]

CN(Cc1ccc(C(C)(C)C)cc1)Cc1cccc2ccccc12 [BUTENAFINE]
Not Active: IC50 [1] | Ki [1] | IC50 [2] | Ki [2] | IC50 [3] | Ki [3] | IC50 [4] | IC50 [5] | IC50 [6] | Ki [6] | IC50 [7] | IC50 [8]

C[C@H](CCC(=O)O)[C@H]1CC[C@H]2[C@@H]3[C@H](O)C[C@@H]4C[C@H](O)CC[C@]4(C)[C@H]3C[C@H](O)[C@]12C [CHOLIC ACID]
Not Active: IC50 [1] | Ki [1] | IC50 [2] | Ki [2] | IC50 [3] | Ki [3] | IC50 [4] | IC50 [5] | IC50 [6] | Ki [6] | IC50 [7] | IC50 [8]

CC1=C2C(=CO[C@H](C)[C@H]2C)C(O)=C(C(=O)O)C1=O [CITRININ]
Not Active: IC50 [1] | Ki [1] | IC50 [2] | Ki [2] | IC50 [3] | Ki [3] | IC50 [4] | IC50 [5] | IC50 [6] | Ki [6] | IC50 [7] | IC50 [8]

— ChEMBL document CHEMBL1909046, “DrugMatrix in vitro pharmacology data”
